Reference: ChEMBL document CHEMBL1135039, “A novel synthesis of 2-arylpyrrolo[1,2-a]pyrimid-7-ones and their structure-activity relationships as potent GnRH receptor antagonists” (Bioorg Med Chem Lett, 2002)

What follows are compounds tested against T1, Gonadotropin-releasing hormone receptor (Homo sapiens, UniProt P30968) (assay: Binding affinity to human gonadotropin-releasing hormone (hGnRH) receptor expressed in HEK293 cells using des-Gly10[125I-Tyr,5DLeu,6NMeLeu,7Pro9-NEt]GnRH radioligand).
T1 sequence (P30968 whole entry): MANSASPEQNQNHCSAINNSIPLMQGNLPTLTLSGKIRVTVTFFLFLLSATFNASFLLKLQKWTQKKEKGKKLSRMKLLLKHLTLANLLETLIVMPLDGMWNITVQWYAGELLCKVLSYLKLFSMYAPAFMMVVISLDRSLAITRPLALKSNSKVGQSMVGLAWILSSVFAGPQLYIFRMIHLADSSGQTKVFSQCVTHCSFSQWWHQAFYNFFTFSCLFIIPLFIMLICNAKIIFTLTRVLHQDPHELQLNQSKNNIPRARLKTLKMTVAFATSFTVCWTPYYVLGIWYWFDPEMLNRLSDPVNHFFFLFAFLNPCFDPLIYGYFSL
Assay type: cell-based

Structure (SMILES) | Ki [nM]
CCOC(=O)c1cn(Cc2ccccc2F)c2cc(-c3ccc(OC)cc3)c(CN(C)Cc3ccccc3)n2c1=O | 400
CCOC(=O)c1cn(Cc2ccccc2F)c2cc(-c3ccc([N+](=O)[O-])cc3)c(CN(C)Cc3ccccc3)n2c1=O | 450
CCOC(=O)c1cn(Cc2ccccc2F)c2cc(-c3ccc(N)cc3)c(CN(C)Cc3ccccc3)n2c1=O | 190
CCCC(=O)Nc1ccc(-c2cc3n(Cc4ccccc4F)cc(C(=O)NC4CCCCC4)c(=O)n3c2CN(C)CCc2ccccn2)cc1 | 32
CCCCNC(=O)c1cn(Cc2ccccc2F)c2cc(-c3ccc(NC(=O)CCC)cc3)c(CN(C)CCc3ccccn3)n2c1=O | 10
CN(CCc1ccccn1)Cc1c(-c2ccc([N+](=O)[O-])cc2)cc2n(Cc3ccccc3F)cc(-c3nc(C(C)(C)C)co3)c(=O)n12 | 64
CN(CCc1ccccn1)Cc1c(-c2ccc([N+](=O)[O-])cc2)cc2n(Cc3ccccc3F)cc(C3=NC(C)(C)CO3)c(=O)n12 | 270
CCCCNC(=O)c1cn(Cc2ccccc2F)c2cc(-c3ccc(NC(=O)CCC)cc3)c(CN(C)CCN(CC)CC)n2c1=O | 440
CCOC(=O)c1cn(Cc2ccccc2F)c2cc(-c3ccc(OC)cc3)c(CN(C)CCc3ccccn3)n2c1=O | 55
CCOC(=O)c1cn(Cc2ccccc2F)c2cc(-c3ccc(NC(=O)C(C)C)cc3)c(CN(C)CCc3ccccn3)n2c1=O | 14
CCC(CC)OC(=O)c1cn(Cc2ccccc2F)c2cc(-c3ccc(OC)cc3)c(CN(C)CCc3ccccn3)n2c1=O | 14
CCCC(=O)Nc1ccc(-c2cc3n(Cc4ccccc4F)cc(C(=O)NCCCc4ccccc4)c(=O)n3c2CN(C)Cc2ccccc2)cc1 | 17
CCCCCCNC(=O)c1cn(Cc2ccccc2F)c2cc(-c3ccc(NC(=O)CCC)cc3)c(CN(C)CCc3ccccn3)n2c1=O | 3.3
CCCC(=O)Nc1ccc(-c2cc3n(Cc4ccccc4F)cc(C(=O)NC4CCCC4)c(=O)n3c2CN(C)CCc2ccccn2)cc1 | 9.2
CCCC(=O)Nc1ccc(-c2cc3n(Cc4ccccc4F)cc(C(=O)NCCOC)c(=O)n3c2CN(C)CCc2ccccn2)cc1 | 630

More lines, now with the values ahead:

Ki [nM] | Structure (SMILES)
21 | CCCC(=O)Nc1ccc(-c2cc3n(Cc4ccccc4F)cc(C(=O)NC(CC)CC)c(=O)n3c2CN(C)CCc2ccccn2)cc1
1.2 | CCCC(=O)Nc1ccc(-c2cc3n(Cc4ccccc4F)cc(C(=O)OCC)c(=O)n3c2CN(C)CCc2ccccn2)cc1
4 | CCC(CC)OC(=O)c1cn(Cc2ccccc2F)c2cc(-c3ccc(NC(C)=O)cc3)c(CN(C)Cc3ccccc3)n2c1=O
100 | CCC(CC)OC(=O)c1cn(Cc2ccccc2F)c2cc(-c3ccc(N)cc3)c(CN(C)Cc3ccccc3)n2c1=O
1.1 | CCCC(=O)Nc1ccc(-c2cc3n(Cc4ccccc4F)cc(C(=O)NCCCc4ccccc4)c(=O)n3c2CN(C)CCc2ccccn2)cc1
130 | CCCC(=O)Nc1ccc(-c2cc3n(Cc4ccccc4F)cc(C(=O)OC(CC)CC)c(=O)n3c2CN(C)C)cc1
42 | CCOC(=O)c1cn(Cc2ccccc2F)c2cc(-c3ccc(NC(C)=O)cc3)c(CN(C)Cc3ccccc3)n2c1=O
2.8 | CCC(CC)OC(=O)c1cn(Cc2ccccc2F)c2cc(-c3ccc(NC(C)=O)cc3)c(CN(C)CCc3ccccn3)n2c1=O
44 | CCOC(=O)c1cn(Cc2ccccc2F)c2cc(-c3ccc(NC(=O)C(C)C)cc3)c(CN(C)Cc3ccccc3)n2c1=O
3.8 | CCCC(=O)Nc1ccc(-c2cc3n(Cc4ccccc4F)cc(C(=O)OC(CC)CC)c(=O)n3c2CN(C)Cc2ccccc2)cc1
62 | CCC(CC)OC(=O)c1cn(Cc2ccccc2F)c2cc(-c3ccc(OC)cc3)c(CN(C)Cc3ccccc3)n2c1=O
2.1 | CCCC(=O)Nc1ccc(-c2cc3n(Cc4ccccc4F)cc(C(=O)OC(CC)CC)c(=O)n3c2CN(C)CCc2ccccc2)cc1
154 | CCCCNC(=O)c1cn(Cc2ccccc2F)c2cc(-c3ccc(NC(=O)CCC)cc3)c(CN(C)Cc3ccccc3)n2c1=O
2.7 | CCCC(=O)Nc1ccc(-c2cc3n(Cc4ccccc4F)cc(C(=O)OC(CC)CC)c(=O)n3c2CN(C)CCc2ccccn2)cc1
5.8 | CCCC(=O)Nc1ccc(-c2cc3n(Cc4ccccc4F)cc(C(=O)OC(CC)CC)c(=O)n3c2CN(C)CCN(CC)CC)cc1
